# Assay results published in patent US11969436B2, “Method for treating skin irritation caused by parabens” (Kao Corporation, priority 2017, dated 2024).
# What was measured:
# CES1 = CES1 mRNA expression in normal human epidermal keratinocytes (real-time PCR, ΔΔ CT method); format: cell-based; settings: 48 hours; for Relative gene expression level (with non treat as 1.0): CES1 mRNA, mean value ± SD, n = 3
# Description: Normal human epidermal keratinocytes (Life Technologies Japan Ltd.) were seeded into a 6-well plate so that the number of cells in each well was […], and cultured in HuMedia-KG2 (KURABO INDUSTRIES LTD.) overnight. Then, an extract of broccoli sprouts (Broccoli Sprout Extract, Oryza Oil (. Fat Chemical Co., Ltd., for cosmetics) was added to the culture medium at a solid concentration of 0.0001 w/v % or 0.001 w/v %, and the cells were cultured for 48 hours. The ceils after culture was washed with D-PB3 (−) and RNA was extracted using RNeasy Mini Kits (QIAGEN) according to the manual attached. The RNA concentration was calculated by using NanoDrop 1000 (Thermo Fisher Scientific). Total RNA extracted was reverse-transcribed using High-Capacity RNA-to-cDNA Kit (Life Technologies Japan Ltd.), and then real-time PCR was performed using 7500 Fast Real-Time PCR System (Life Technologies Japan Ltd.). In the real-time PCR, the expression levels of CES1 mRNA were compared by the ΔΔ CT method using the above reverse transcribed cDNA and CES1, or, as an endogenous control, Tsqman primer for RPLP0 (Life Technologies Japan Ltd., CES1:Hs00275627-m1, RPLP0:HS00420695_gH), Taqma.n Gene Expression Master Mix (Life Technologies Japan Ltd.).
# Normal human epidermal keratinocytes (Life Technologies Japan Ltd.) were seeded into a 6-well plate so that the number of cells in each well was […] and cultured in HuMedia-KG2 (KURABO INDUSTRIES LTD.) overnight. Then, suiforaphane (Sigma-Aldrich) was exposed to the cells so that the final concentration was 0.1, 1, and 10 μM, and the cells were cultured for 48 hours. The cells after culture was washed with a phosphate buffer (D-PBS (−)) and RNA was extracted using RNeasy Mini Kits (QIAGEN) according to the manual attached. The RNA concentration was calculated by using NanoDrop 1000 (Thermo Fisher Scientific). Total RNA extracted was reverse-transcribed using High-Capacity RNA-to-cDNA Kit (Life Technologies Japan Ltd.), and then real-time PCR was performed using 7500 Fast Real-Time PCR System (Life Technologies Japan Ltd.). In the real-time PCR, the expression levels of the gene were compared by the ΔΔ CT method using the above reverse transcribed cDNA and carboxylesterase 1, or, as an endogenous control, Taqman primer for RPLP0 (Life Technologies Japan Ltd., CES1:Hs00275627-m1, RPLP0:HS00420895_gH), Taqman Gene Expression Master Mix (Life Technologies Japan Ltd.).
# [1] = system: three-dimensional cultured human epidermis model; experiment: IL-1α production in three-dimensional cultured human epidermis model (LabCyte EPI-MODEL 24); format: cell-based; settings: 50 μL of 16.4 mM aqueous solution, cultured 6 hours, post-cultured 18 hours; FIG. 1
# Description: LabCyte EPI-MODEL 24 (made by Japan Tissue Engineering Co., Ltd.) was used as a three-dimensional cultured human epidermis model. The culture insert was pre-cultured (5% CO2, 37° C.) in a 500 μL exclusive assay medium overnight, and the culture insert was transferred to a 24-well plate containing a fresh assay medium. 50 μL of a 16.4 mM aqueous solution of methyl p-hydroxybenzoate (MP) or p-hydroxybenzoic acid (PHBA) was added to the epidermal tissue in the culture insert, and the tissue was cultured for 6 hours. Then the culture insert was washed with phosphate buffer 10 times, and transferred to a 24-well plate containing a fresh assay medium, and post-cultured for 18 hours. After the post-culture, the amount of IL-1α in the medium was determined using Human IL-1 alpha/IL-1F1 Quantikine ELISA Kit (R&D Systems) according to the protocol attached.
# [2] = system: skin of subjects with sensitive skin; experiment: Stinging test A, sensory irritation on the cheek of subjects with sensitive skin; format: in vivo, human; settings: nonwoven fabric with 600 μL of 16.4 mM aqueous solution on the cheek, 30 seconds to 5 minutes; FIG. 2
# Description: Those who met all of the following criteria were selected as subjects with sensitive skin.
# The subjects selected were tested for Stinging test A according to the following method.
# After washing face with a make-up remover and a face wash, conditioning was performed in an environment of a temperature of 23° C. and a humidity of 50% for 5 minutes or more. A 2 cm×5 cm piece of nonwoven fabric which was impregnated with 600 μL of a 16.4 mM aqueous solution of methyl p-hydroxybenzoate or p-hydroxybenzoic acid was contacted to the cheek. For sensory irritation that the subjects felt (sore, stinging, pricking, smart, hot, flushed) 30 seconds, 1 minute, 2 minutes, 3 minutes, and 5 minutes after the start of the contact, the subjects submitted scores (0: nothing felt, 0.5: slightly felt or slight discomfort, 1.0: a little discomfort, 1.5: a little to moderate discomfort, 2.0: moderate discomfort, 2.5: moderate to much discomfort, 3.0: much or unbearable discomfort). A value obtained by subtracting, from the highest score of all the scores after 30 seconds to 5 minutes, the highest score in a test performed in the same manner as above except for using distilled water was determined as the sensory irritation score, and the sensory irritation score was statistically analyzed by the Nilcoxon signed-rank test.
Structure (SMILES),Relative gene expression level (with non treat as 1.0) (CES1; sulforaphane 0.1 μM),Relative gene expression level (with non treat as 1.0) (CES1; sulforaphane 1 μM),Relative gene expression level (with non treat as 1.0) (CES1; sulforaphane 10 μM),"expression level of CES1 mRNA (CES1; sulforaphane 0.1, 1 and 10 μM, summary of Table 1)",amount of IL-1α in the medium [1],sensory irritation score [2]
"C[S+]([O-])CCCCN=C=S (stereo not shown) [Sulforaphane, 4-(methylsulfinyl)butyl isothiocyanate]",1.5 ± 0.33,3.6 ± 0.90,35 ± 8.4,increased the expression level of CES1 mRNA,,
"O=C(O)c1ccc(O)cc1 [PHBA, p-hydroxybenzoic acid]",,,,,much smaller than that when MP was used,very mild
"COC(=O)c1ccc(O)cc1 [MP, methyl p-hydroxybenzoate]",,,,,,felt some irritation
